“And” between values parts separate entries of the source, which are not always exact repeats. Equal values may be shown once.
How the values were obtained:
Format in all cases: cell-based, Escherichia coli
E. coli ATCC 12435 = assay: Log kill / surviving titer in aqueous bacterial suspension, plating on TSA; details: for cfu per ml: no lactic acid (0.00 control 3.41E+07)
E. coli ATCC 43888 = assay: Reaction mixture streak plate, visual observation; details: room temperature
Method: The tests were performed at room temperature.

[1] = test system: E. coli ATCC 43888 (O157:H7); assay: Log kill in aqueous bacterial suspension, plating on TSA; details: 73 deg. F.
E. coli SAC-2 = assay: Log kill / surviving titer in aqueous bacterial suspension, plating on TSA; details: for Log Kill […] Lactic Acid: 75 degrees F.; for Log Kill: sulfate; for cfu per ml: 75 deg. F. (0.00 control 4.18E+07)
Method: In each instance a target sample was employed using approximately 50 micro liters of an SAC-2 culture. E. coli “SAC-2,” was a Gram-negative strain isolated from municipal sewage. The tests were performed at room temperature, i.e., 75 deg. F. […] The results of each test sample were evaluated using a series of 10-fold dilutions as needed to determine, on a standard plating agar (TSA), the titer of bacteria that survived the antimicrobial treatment.
The same procedure was employed as in Example 2, but the only agent added to the target solution was Niaproof 08. No lactic acid was employed.
The mixture was then diluted and plated as previously described.
Increasing amounts of reagent were added to a series of test tubes. […] The bacterial titer of each mixture was determined by preparation and plating of serial dilutions on TSA.
[…] […] The amphoteric and zwitterionic surfactants, which carry a net positive charge under the conditions of the reaction mixture, caused enhancement of the log kill by lactic acid. All anionic surfactants tested caused substantial enhancement of the log kill by lactic acid.

[2] = Niaproof 08 0.02 wt./wt. % in 2.5 wt. % lactic acid
[3] = Niaproof 08 0.04 wt./wt. % in 2.5 wt. % lactic acid
[4] = Niaproof 08 0.06 wt./wt. % in 2.5 wt. % lactic acid
[5] = Niaproof 08 0.10 wt./wt. % in 2.5 wt. % lactic acid

Compound: CCCCC(CC)COS(=O)(=O)[O-].[Na+] (centres unmarked) [Niaproof 08, sodium 2-ethylhexyl sulfate]
- Log Kill (Lactic Acid + Surfactant) (E. coli ATCC 12435; 0.1% Niaproof 08 in 2.5% lactic acid, 15 seconds, 83 degrees F.): 6.54 log
- Enhancement Factor (E. coli ATCC 12435; [2]): 1.52
- Log Kill (E. coli ATCC 12435; [2]): 3.469 log
- Enhancement Factor (E. coli ATCC 12435; [3]): 1.43
- Log Kill (E. coli ATCC 12435; [3]): 3.259 log
- Enhancement Factor (E. coli ATCC 12435; [4]): 2.79
- Log Kill (E. coli ATCC 12435; [4]): 6.367 log
- Enhancement Factor (E. coli ATCC 12435; [5]): 2.86
- Log Kill (E. coli ATCC 12435; [5]): 6.539 log
- cfu per ml (E. coli ATCC 12435; Niaproof 08 alone 0.02 % wt./wt.): 3.41E+07 cfu per ml
- cfu per ml (E. coli ATCC 12435; Niaproof 08 alone 0.06 % wt./wt.): 3.43E+07 cfu per ml
- cfu per ml (E. coli ATCC 12435; Niaproof 08 alone 0.14 % wt./wt.): 3.56E+07 cfu per ml
- cfu per ml (E. coli ATCC 12435; Niaproof 08 alone 0.20 % wt./wt.): 3.04E+07 cfu per ml
- Description/Observation (E. coli ATCC 43888; Niaproof 08 0.02 % wt./wt. in 2.5 wt. % lactic acid): Extensive bacterial growth.
- Description/Observation (E. coli ATCC 43888; Niaproof 08 0.04 % wt./wt. in 2.5 wt. % lactic acid): No bacterial growth.
- Description/Observation (E. coli ATCC 43888; Niaproof 08 0.06 % wt./wt. in 2.5 wt. % lactic acid): No bacterial growth.
- Description/Observation (E. coli ATCC 43888; Niaproof 08 0.08 % wt./wt. in 2.5 wt. % lactic acid): No bacterial growth.
- Description/Observation (E. coli ATCC 43888; Niaproof 08 0.10 % wt./wt. in 2.5 wt. % lactic acid): No bacterial growth.
- concentration of surfactant at which all bacteria added were killed (E. coli ATCC 43888; in 2.5 wt. % lactic acid): ≥ 0.04%
- +Niaproof 08 (Log Kill) ([1]; 2.5% lactic acid + Niaproof 08, pH 2.19, 20 secs.): 5.75 log
- +Niaproof 08 (Log Kill) ([1]; 2.5% lactic acid + Niaproof 08, pH 2.42, 20 secs.): 3.17 log
- +Niaproof 08 (Log Kill) ([1]; 2.5% lactic acid + Niaproof 08, pH 2.59, 20 secs.): 3.81 log
- +Niaproof 08 (Log Kill) ([1]; 2.5% lactic acid + Niaproof 08, pH 2.74, 20 secs.): 4.94 log
- +Niaproof 08 (Log Kill) ([1]; 2.5% lactic acid + Niaproof 08, pH 2.86, 20 secs.): 5.01 log
- +Niaproof 08 (Log Kill) ([1]; 2.5% lactic acid + Niaproof 08, pH 3.24, 20 secs.): 0 log
- +Niaproof 08 (Log Kill) ([1]; 2.5% lactic acid + Niaproof 08, pH 3.67, 20 secs.): 0 log
- Log Kill […] Lactic Acid (E. coli SAC-2; Niaproof 08 0.02 % wt./wt. in […] lactic acid, 15 seconds): 0.575 log
- Enhancement Factor (log10 kill with lactic acid and surfactant divided by log10 kill with lactic acid only) (E. coli SAC-2; [2]): 2.37
- Log Kill (E. coli SAC-2; Niaproof 08 0.02 wt./wt. % in 2.5 wt. % lactic acid, 15 seconds, room temperature): 1.08 log and 1.080 log
- Log Kill […] Lactic Acid (E. coli SAC-2; Niaproof 08 0.04 % wt./wt. in […] lactic acid, 15 seconds): 1.060 log
- Enhancement Factor (log10 kill with lactic acid and surfactant divided by log10 kill with lactic acid only) (E. coli SAC-2; [3]): 3.82
- Log Kill (E. coli SAC-2; Niaproof 08 0.04 wt./wt. % in 2.5 wt. % lactic acid, 15 seconds, room temperature): 1.74 log and 1.740 log
- Log Kill […] Lactic Acid (E. coli SAC-2; Niaproof 08 0.06 % wt./wt. in […] lactic acid, 15 seconds): 1.011 log
- Log Kill […] Lactic Acid (E. coli SAC-2; Niaproof 08 0.08 % wt./wt. in […] lactic acid, 15 seconds): 2.110 log
- Enhancement Factor (log10 kill with lactic acid and surfactant divided by log10 kill with lactic acid only) (E. coli SAC-2; Niaproof 08 0.08 wt./wt. % in 2.5 wt. % lactic acid): 10.5
- Log Kill (E. coli SAC-2; Niaproof 08 0.08 wt./wt. % in 2.5 wt. % lactic acid, 15 seconds, room temperature): 4.8 log and 4.800 log
- Log Kill […] Lactic Acid (E. coli SAC-2; Niaproof 08 0.10 % wt./wt. in […] lactic acid, 15 seconds): 2.770 log
- Log Kill […] Lactic Acid (E. coli SAC-2; Niaproof 08 0.12 % wt./wt. in […] lactic acid, 15 seconds): 2.820 log
- Enhancement Factor (log10 kill with lactic acid and surfactant divided by log10 kill with lactic acid only) (E. coli SAC-2; Niaproof 08 0.12 wt./wt. % in 2.5 wt. % lactic acid): 13.4
- Log Kill (E. coli SAC-2; Niaproof 08 0.12 wt./wt. % in 2.5 wt. % lactic acid, 15 seconds, room temperature): 6.1 log and 6.100 log
- Enhancement Factor (log10 kill with lactic acid and surfactant divided by log10 kill with lactic acid only) (E. coli SAC-2; Niaproof 08 0.16 wt./wt. % in 2.5 wt. % lactic acid): 13.4
- Log Kill (E. coli SAC-2; Niaproof 08 0.16 wt./wt. % in 2.5 wt. % lactic acid, 15 seconds, room temperature): 6.1 log and 6.100 log
- Log Kill […] Lactic Acid (E. coli SAC-2; Niaproof 08 0.20 % wt./wt. in […] lactic acid, 15 seconds): 5.980 log
- Enhancement Factor (log10 kill with lactic acid and surfactant divided by log10 kill with lactic acid only) (E. coli SAC-2; Niaproof 08 0.20 wt./wt. % in 2.5 wt. % lactic acid): 13.4
- Log Kill (E. coli SAC-2; Niaproof 08 0.20 wt./wt. % in 2.5 wt. % lactic acid, 15 seconds, room temperature): ~6 log and 6.1 log and 6.100 log
- Log Kill […] Lactic Acid (E. coli SAC-2; Niaproof 08 […] wt./wt. in […] lactic acid, 15 seconds): 5.980 log
- elimination of detectable E. coli (E. coli SAC-2; Niaproof 08 above about 0.2 wt./wt. % in 2.5 wt. % lactic acid, 15 seconds, room temperature): complete elimination of detectable E. coli
- cfu per ml (E. coli SAC-2; Niaproof 08 alone 0.02 % wt./wt., no lactic acid, 15 seconds): 4.05E+07 cfu per ml
- cfu per ml (E. coli SAC-2; Niaproof 08 alone 0.06 % wt./wt., no lactic acid, 15 seconds): 3.63E+07 cfu per ml
- cfu per ml (E. coli SAC-2; Niaproof 08 alone 0.14 % wt./wt., no lactic acid, 15 seconds): 4.25E+07 cfu per ml
- cfu per ml (E. coli SAC-2; Niaproof 08 alone 0.20 % wt./wt., no lactic acid, 15 seconds): 4.15E+07 cfu per ml
- antimicrobial effect of Niaproof 08 by itself (E. coli SAC-2; no lactic acid, up to 0.20 % wt./wt., 15 seconds): no antimicrobial effect
- Log Kill (Lactic Acid + Surfactant) (E. coli SAC-2; surfactant 0.2% in 2.5% lactic acid, 15 seconds, 74 to 80 degrees F.): 4.08 log

From patent US20140272041A1, “METHODS OF REDUCING PATHOGENS DURING PROCESSING OR POST-PROCESSING OF BEEF, POULTRY AND OTHER MEAT PRODUCTS” (BIRKO Corporation, priority 2009, published 2014)
